BigSolDB 2.1

Cc1ncc(COP(=O)(O)O)c(C=O)c1O.O
solubility (mole fraction)
Details | 278.15 K | 283.15 K | 288.15 K | 293.15 K | 298.15 K | 303.15 K | 308.15 K | 313.15 K | 318.15 K
in acetone | 4.8e-07 | 6.8e-07 | 8.7e-07 | 1.26e-06 | 1.74e-06 | 2.42e-06 | 3.19e-06 | 4.06e-06 | 5.02e-06
in ethanol | 2.81e-06 | 3.12e-06 | 3.5e-06 | 3.95e-06 | 4.18e-06 | 4.86e-06 | 6e-06 | 7.22e-06 | 8.59e-06
in isopropanol | 2.35e-06 | 2.45e-06 | 2.77e-06 | 3.2e-06 | 3.73e-06 | 4.59e-06 | 5.66e-06 | 7.04e-06 | 9.17e-06
in methanol | 4.5e-06 | 5.92e-06 | 8.99e-06 | 1.33e-05 | 1.83e-05 | 2.39e-05 | 3.18e-05 | 4.17e-05 | 5.38e-05
in water | 0.000216 | 0.000247 | 0.000284 | 0.000333 | 0.000388 | 0.000465 | 0.000558 | 0.00066 | 0.000803
